Like-named read-outs stand apart in the source and are kept apart here.
Key:
[1] = target: T1, peripheral benzodiazepine receptor (Rattus norvegicus, UniProt P16257); assay: In vitro binding assay for peripheral benzodiazepine receptors ([^3H]-PK11195, rat kidney membranes); design: diluted kidney membrane preparation; from tissue; host or cells: rat kidney membranes (Sprague Dawley)
Protocol: In Vitro Binding Assays for Peripheral Benzodiazepine Receptors
Male Sprague Dawley rats are sacrificed by CO2 administration followed by cervical dislocation. Kidneys are removed and placed in 20 volumes of ice-cold buffer ([…] Tris-HCl, pH 7.4) and minced finely with scissors. After homogenising the preparation with a polytron (PCU Kintematica, Bioblock, Switzerland) with one 10-second burst at a setting of 10, the suspension is centrifuged at 49,000 g for 15 minutes at 4° C. The pellets are resuspended in the previous buffer with a dounce (manual homogeniser) to yield an appropriate protein concentration. Protein measurements are made by Lowry's method using bovine serum albumin as standard.
(§1) Non-specific binding is determined by blocking with cold PK11195 (10 μM). Incubation is terminated by rapid filtration through Whatman GF/B glass fiber. Each sample tube and filter is immediately washed with 3 aliquots of 5 mL ice-cold […] Tris/HCl at pH 7.4. Filters are counted with a β-scintillation counter (Packard) to measure the amount of bound radioactivity. Ki and IC50 are calculated by EBDA/Ligand, iterative non-linear least squares curve-fitting programs.

[2] = target: central benzodiazepine receptor; assay: In vitro binding assay for central benzodiazepine receptors ([^3H]-Ro 15-1788, rat cortex membranes); conditions: rat cortex membrane / rat brain homogenates, [^3H]-Ro 15-1788 2 nM, 25° C., 45 minutes; read-out: IC50 (nM) CBR
Protocol: In Vitro Binding Assays for Central Benzodiazepine Receptors
Male Sprague Dawley rats are sacrificed by CO2 administration followed by cervical dislocation. Cortex is removed and placed in 20 volumes of ice-cold buffer ([…] Tris-HCl, pH 7.4) and minced finely with scissors. After homogenising the preparation will a polytron (PCU Kinematica, Bioblock, Switzerland) with one 10-second burst at a setting of 6, the suspension is centrifuged at 20,000 g for 20 minutes at 4° C. The pellets are resuspended in the previous buffer with a dounce (manual homogeniser). After the second centrifugation, the pellet is suspended in a final buffer (50 nM Tris/HCl, 0.32M sucrose, pH 7.4) to yield an appropriate protein concentration. Protein measurements are made by Lowry's method using bovine serum albumin as standard.
as §1, with “Flumazenil (20” for “PK11195 (10”, “programs (G. A. McPherson, J. Pharmacol. Methods 14, 213-228 (1985)).” for “programs.”

[3] = target: T1, peripheral benzodiazepine receptor; assay: Pretreatment (blocking) of uptake of radiolabelled compounds in rats; assay type: in vivo; design: high uptake in the tissues which have known PBR sites; from tissue; host or cells: living rats; organs with PBR sites; conditions: pretreatment with unlabelled substance (1 mg/kg)

With `CCCCN(C)C(=O)Cc1c(-c2ccc(I)cc2)nc2ccc(Cl)cn12` [Example 6, 6chloro-2-(4′-iodophenyl)-imidazo[1,2-a]pyridine-3-(N-methyl, N-butyl)-acetamide] the IC50 ([1]; rat kidney membrane, [^3H]-PK11195 2 nM, 4° C., 1 hour, read-out: IC50 (nM) PBR) was 266 nM and the IC50 [2] was greater than 1000 nM.

For `CCC(C)N(C)C(=O)c1cc2ccccc2c(-c2ccccc2Cl)n1` (stereo not drawn) [PK 11195, 1-(2-chlorophenyl)-N-methyl-N-(1-methylpropyl)-3-isoquinolinecarboxamide], the “effect of pretreatment on uptake of activity of the radiolabelled compounds in the tissues of interest” value (“effect of pretreatment” for short) [3] was “significantly reduced”.

Molecule `CN(C)C(=O)Cc1c(-c2ccc(Cl)cc2)nc2ccc(Br)cn12` [D] has a melting point of 234 to 236 °C, an IC50 [1] of 90 nM and an IC50 [2] of 56.5 nM.

In the case of `CCCN(C)C(=O)Cc1c(-c2ccc(I)cc2)nc2ccc(Cl)cn12` [Example 4, 6-chloro-2-(4′-iodophenyl)-imidazo[1,2-a]pyridine-3-(N-methyl, N-propyl)-acetamide], the melting point is reported as 170 to 172 °C, the IC50 [1] is reported as 0.98 nM and the IC50 [2] is reported as 117 nM.

`CCCN(CCC)C(=O)Cc1c(-c2ccc(I)cc2)nc2ccc(Cl)cn12` [Example 5, 6-chloro-2-(4′-iodophenyl)-imidazo[1,2-a]pyridine-3-(N,N-dipropyl)-acetamide] gave a melting point of 152 to 153 °C, an IC50 [1] of 3.91 nM and an IC50 [2] greater than 1000 nM.

`CNC(=O)Cc1c(-c2ccc(Cl)cc2)nc2ccc(Br)cn12` [C] showed a melting point of 298 to 300 °C, an IC50 [1] of 33 nM and an IC50 [2] of 15 nM.

Molecule `CNC(=O)Cc1c(-c2ccc(F)cc2)nc2ccc(Cl)cn12` [B] has a melting point of 254 to 256 °C, an IC50 [1] greater than 1000 nM and an IC50 [2] of 5.9 nM.

`CNC(=O)Cc1c(-c2ccc(I)cc2)nc2ccc(Cl)cn12` [Example 1, 6-chloro-2-(4′-iodophenyl)-imidazol[1,2-a]pyridine-3-(N-methyl)acetamide] gave a melting point of 308 to 310 °C, an IC50 [1] of 0.99 nM and an IC50 [2] greater than 1000 nM.

With `CN1C(=O)CN=C(c2ccccc2)c2cc(Cl)ccc21` [Diazepam] the “effect of pretreatment” value [3] was “only marginally”.

For `CCCCN(CCCC)C(=O)Cc1c(-c2ccc(I)cc2)nc2ccc(Cl)cn12` [Example 7, 6-chloro-2-(4′-iodophenyl)-imidazo[1,2-a]pyridine-3-(N,N-dibutyl)-acetamide], the melting point was 250 to 252 °C, the IC50 [1] was 177 nM and the IC50 [2] was greater than 1000 nM.

For `CCN(CC)C(=O)Cc1c(-c2ccc(I)cc2)nc2ccc(Cl)cn12` [Example 3, 6-chloro-2-(4′-iodophenyl)-imidazo[1,2-a]pyridine-3-(N,N-diethyl)acetamide], the IC50 [1] was less than 0.01 nM and the IC50 [2] was greater than 1000 nM.

With `NC(=O)Cc1c(-c2ccc(F)cc2)nc2ccc(Cl)cn12` [Comparative Example A] the melting point was 250 to 252 °C, the IC50 [1] was 3340 nM and the IC50 [2] was 170 nM.

Molecule `Cc1ccc2nc(-c3ccc(I)cc3)c(CC(=O)N(C)C)n2c1` [E, 6-methyl-2-(4′-iodophenyl)imidazo[1,2-a]pyridine-3-(N,N-dimethyl)acetamide, reference compound] has an IC50 [1] of 176 nM and an IC50 [2] of 155 nM.

Work on `CN(C)C(=O)Cc1c(-c2ccc(I)cc2)nc2ccc(Cl)cn12` [Example 2] yielded a melting point of 216 to 218 °C, an IC50 [1] of 2.3 nM and an IC50 [2] of 168 nM.

In the case of `CCOC(=O)c1ncn2c1CN(C)C(=O)c1cc(F)ccc1-2` [Flumazenil], the “effect of pretreatment” value [3] is reported as “only marginally”.

From patent US6379649B1, “Imidazo(1,2-a)pyridines as peripheral benzodiazepine receptor binding agents” (Australian Nuclear Science & Technology Organisation, priority 1998, dated 2002)
